# Test results: US20220288052A1, “COMPOUND FOR COMBINATION TREATMENT” (priority 2019, published 2022)
# Like-named read-outs stand apart in the source and are kept apart here.
# Key:
# [1] = 5 days p.o. tolerated dose study in female mice (non-GLP); assay type: in vivo, mouse; conditions: p.o. 5 days, 3, 5, 15, 30, 60 mg/kg
# [2] = Tissue distribution after single dose, rat; assay type: in vivo; conditions: sc; for AUC(0-t): male, Wistar, rat 5 mg/kg s.c., read-out: AUC(0-24 h); for half-life: rat, male Wistar rats 5 mg/kg s.c., read-out: T½ (converted)
# Description: Compound (I) was dosed to male Wistar rats 5 mg/kg s.c. Plasma was taken 0.5, 1, 2, 4, 6 and 24 post dose. Brain, liver and lung were taken 1, 4 and 24 hours post dose.
# The plasma profile was again essentially the same as for the single dose study showing the same T½ of 0.8 h. AUC and T½ were calculated for plasma and organs, even though the data are very sparse for the organs.
# 5-HT transporter = 5-HT transporter (Homo sapiens, UniProt P31645); test: ^3H-Citalopram binding, human
# Chain of 5-HT transporter (P31645 whole entry): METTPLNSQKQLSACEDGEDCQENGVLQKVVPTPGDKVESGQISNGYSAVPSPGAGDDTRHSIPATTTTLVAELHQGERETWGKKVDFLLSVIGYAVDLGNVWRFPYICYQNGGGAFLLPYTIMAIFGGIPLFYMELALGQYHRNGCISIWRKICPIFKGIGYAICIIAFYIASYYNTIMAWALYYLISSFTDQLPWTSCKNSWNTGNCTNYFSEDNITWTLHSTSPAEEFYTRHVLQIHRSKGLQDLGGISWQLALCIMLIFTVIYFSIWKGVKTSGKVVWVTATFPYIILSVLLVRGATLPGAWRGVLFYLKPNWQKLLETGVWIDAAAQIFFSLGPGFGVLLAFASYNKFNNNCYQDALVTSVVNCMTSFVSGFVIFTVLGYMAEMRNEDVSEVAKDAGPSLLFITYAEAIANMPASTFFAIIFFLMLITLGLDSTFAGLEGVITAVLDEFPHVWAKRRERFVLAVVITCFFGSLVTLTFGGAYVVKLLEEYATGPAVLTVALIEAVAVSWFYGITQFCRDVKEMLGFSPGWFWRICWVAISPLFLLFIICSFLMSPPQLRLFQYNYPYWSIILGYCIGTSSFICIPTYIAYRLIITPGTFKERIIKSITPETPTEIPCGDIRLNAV
# Source text: (§1) Compound (I) has been characterized as a monoamine reuptake inhibitor, based on the profile in a series of functional assays (Table 2).
# DAT = DAT (Homo sapiens, UniProt Q01959); test: MDS LeadProfilingScreen, DAT; assay type: binding
# Chain of DAT (Q01959 whole entry): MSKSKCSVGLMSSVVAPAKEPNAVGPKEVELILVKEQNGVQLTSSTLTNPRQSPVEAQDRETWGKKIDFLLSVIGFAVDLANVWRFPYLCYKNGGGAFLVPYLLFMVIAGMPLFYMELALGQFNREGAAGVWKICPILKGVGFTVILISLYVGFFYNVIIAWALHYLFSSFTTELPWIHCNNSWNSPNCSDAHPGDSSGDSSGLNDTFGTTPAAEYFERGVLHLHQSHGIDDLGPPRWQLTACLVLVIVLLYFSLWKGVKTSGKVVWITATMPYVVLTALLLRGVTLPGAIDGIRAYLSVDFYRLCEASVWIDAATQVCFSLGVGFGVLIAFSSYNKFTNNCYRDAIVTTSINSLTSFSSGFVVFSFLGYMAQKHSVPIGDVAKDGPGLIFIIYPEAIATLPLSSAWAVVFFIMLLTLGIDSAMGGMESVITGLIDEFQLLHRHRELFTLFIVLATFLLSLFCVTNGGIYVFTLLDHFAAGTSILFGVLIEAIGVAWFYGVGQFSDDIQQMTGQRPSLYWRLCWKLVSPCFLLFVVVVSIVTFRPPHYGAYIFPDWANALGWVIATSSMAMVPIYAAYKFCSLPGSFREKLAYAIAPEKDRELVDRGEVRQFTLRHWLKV
# NA transporter [3] = biological target: NA transporter (Rattus norvegicus, UniProt Q63380); test: ^3H-Nisoxetine binding, rat
# Chain of NA transporter (Rattus norvegicus, UniProt Q63380) (Q63380 1-617): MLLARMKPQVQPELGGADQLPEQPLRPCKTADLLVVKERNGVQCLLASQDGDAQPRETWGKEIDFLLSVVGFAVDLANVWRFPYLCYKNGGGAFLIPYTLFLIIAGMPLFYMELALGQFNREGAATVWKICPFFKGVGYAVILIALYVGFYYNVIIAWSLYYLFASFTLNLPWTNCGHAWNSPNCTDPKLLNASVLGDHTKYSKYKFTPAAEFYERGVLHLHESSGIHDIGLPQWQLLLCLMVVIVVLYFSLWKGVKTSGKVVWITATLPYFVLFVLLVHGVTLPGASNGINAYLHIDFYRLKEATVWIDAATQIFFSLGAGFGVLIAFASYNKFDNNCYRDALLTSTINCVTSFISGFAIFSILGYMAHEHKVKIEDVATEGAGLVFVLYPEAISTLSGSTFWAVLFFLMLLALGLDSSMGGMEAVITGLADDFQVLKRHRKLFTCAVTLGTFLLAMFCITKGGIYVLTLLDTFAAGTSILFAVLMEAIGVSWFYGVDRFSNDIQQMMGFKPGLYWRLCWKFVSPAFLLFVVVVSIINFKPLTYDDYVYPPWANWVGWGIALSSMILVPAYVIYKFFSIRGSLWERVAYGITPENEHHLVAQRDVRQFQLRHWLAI
# Source text: as §1
# NA transporter [4] = biological target: T1, NA transporter (Mus musculus, UniProt O55192); test: Ex vivo NA uptake in mice
# T1 construct: from tissue; host or cells: tissue of dosed animals (ex vivo)
# T1 sequence (O55192 whole entry): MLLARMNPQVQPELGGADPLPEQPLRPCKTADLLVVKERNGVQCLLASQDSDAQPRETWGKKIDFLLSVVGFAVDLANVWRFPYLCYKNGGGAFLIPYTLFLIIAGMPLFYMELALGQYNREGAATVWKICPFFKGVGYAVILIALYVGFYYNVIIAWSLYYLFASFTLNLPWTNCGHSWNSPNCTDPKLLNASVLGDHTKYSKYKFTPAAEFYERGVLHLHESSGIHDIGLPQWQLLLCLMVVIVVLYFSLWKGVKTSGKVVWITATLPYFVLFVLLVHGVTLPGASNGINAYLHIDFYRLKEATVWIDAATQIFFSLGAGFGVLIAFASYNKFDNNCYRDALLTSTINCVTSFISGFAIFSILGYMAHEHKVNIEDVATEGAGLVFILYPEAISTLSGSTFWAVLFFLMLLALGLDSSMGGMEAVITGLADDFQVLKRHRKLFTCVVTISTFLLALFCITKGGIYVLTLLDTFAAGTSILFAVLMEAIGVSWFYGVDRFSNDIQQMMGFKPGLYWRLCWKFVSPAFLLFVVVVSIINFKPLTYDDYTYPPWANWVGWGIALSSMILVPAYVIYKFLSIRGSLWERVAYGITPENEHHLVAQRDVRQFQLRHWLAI
# Description: The in vivo receptor occupancy (RO %) of compound (I) was calculated at the MED values (DOSE) in mFST and in the mouse motility test using the formula RO % (estimated)=DOSE 100/(ED50+DOSE). The calculations were based on ED50 values in ex vivo uptake of 5-HT and NA and WIN in vivo binding.
# anesthetized rats = test: Induction of erection in anesthetized rats (intracavernous pressure); assay type: in vivo, rat
# Description: FIG. 25: Average spontaneous increases in (A) intracavernous pressure, (B) duration and (C) frequency of these events after infusion of the compound (I) (1 mg/kg) in young (6 week old male Wistar rats) and old (14-16 week old male rats) rats. Results are means±s.e. mean.
# FIG. 26: Average rises in number of spontaneous erections measured as intracavernous pressure (ICP) after infusion of, respectively, 0.001 mg/kg, 0.01 mg/kg, 0.1 mg/kg, and 1 mg/kg compound (I) in anesthetized rats (n=4-6).
# FIG. 27: Average effect of (A) vehicle (n=5), and compound (I) on mean arterial pressure (MAP) and erectile response measured as peak intracavernous pressure (PICP) over MAP (PICP/MAP) in anesthetized (B) 6 week old male Wistar rats (n=6), and (C) 14-16 week old male rats (n=6). Vehicle and compound (I) were administered after establishing the maximal (10 Hz, 1 ms, 6 V) and submaximal (submax) responses (10 Hz, 1 ms, 0.6-1.55 V) to cavernous nerve stimulation for 30 s. Submaximal stimulation was repeated 3, 13, 23, and 33 min after drug or vehicle administration. Upper traces show the mean arterial pressure (MAP), bars represent the erectile response ((PICP/MAP)·100), where PICP is the peak intracavernous pressure. […]
# Compound (I) was administered intravenously to rats in dosages of 0.001, 0.01, 0.1, and 1.0 mg/kg, and the number of spontaneous erections was measured. […]
# [5] = Metabolic stability in liver microsomes, rat; assay type: in vitro ADME
# Description: The metabolic stability of compound (I) was tested in liver microsomes from all in house available species at 1 and 5 μM. One metabolite of 16 mass units higher than parent, was found in all incubations, except with human liver microsomes.
# NA transporter [6] = biological target: NA transporter (Homo sapiens, UniProt P23975); test: ^3H-Nisoxetine binding, human
# Chain of NA transporter (Homo sapiens, UniProt P23975) (P23975 whole entry): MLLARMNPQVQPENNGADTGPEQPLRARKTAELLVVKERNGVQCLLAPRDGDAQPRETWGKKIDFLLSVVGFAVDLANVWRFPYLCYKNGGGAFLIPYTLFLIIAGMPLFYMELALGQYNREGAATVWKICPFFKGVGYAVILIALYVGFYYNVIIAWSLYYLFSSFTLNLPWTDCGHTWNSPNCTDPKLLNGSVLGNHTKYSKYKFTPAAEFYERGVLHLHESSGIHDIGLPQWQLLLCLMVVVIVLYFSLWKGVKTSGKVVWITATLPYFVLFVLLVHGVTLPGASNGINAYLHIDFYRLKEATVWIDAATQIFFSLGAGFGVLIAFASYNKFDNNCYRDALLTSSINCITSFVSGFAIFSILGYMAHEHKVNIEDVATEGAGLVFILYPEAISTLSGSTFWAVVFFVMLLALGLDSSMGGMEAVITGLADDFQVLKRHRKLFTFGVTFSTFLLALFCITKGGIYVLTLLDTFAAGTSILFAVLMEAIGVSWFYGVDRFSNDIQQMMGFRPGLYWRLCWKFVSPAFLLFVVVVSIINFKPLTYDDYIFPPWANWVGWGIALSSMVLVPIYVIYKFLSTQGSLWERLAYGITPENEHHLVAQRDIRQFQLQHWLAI
# Source text: as §1
# [7] = 14-day repeat-dose study in Wistar rats; assay type: in vivo, rat
# Description: In a 14-day repeat-dose study 4 groups of 4 male and 4 female Wistar rats were treated daily with either compound (I) at doses of 5, 10 and 15 mg/kg s.c. (Groups 2, 3 and 4), or vehicle, 5% glucose s.c. (Group 1). A satellite group 25 mg/kg s.c. (group5) was conducted accordingly to increase the exposure and efficacy.
# [8] = Linearity after single p.o. dose in mouse; assay type: in vivo; conditions: for AUC(0-inf) / bioavailability / half-life: female, NMRI, mouse; for AUC(0-inf) / bioavailability / half-life / Cmax / Tmax: plasma, po; for bioavailability: compared to 10 mg/kg i.v.; for half-life: read-out: T½ (converted); for Cmax / Tmax: female NMRI mouse; for Tmax: 5% Tween 80
# CYP 2C19 = CYP 2C19 (Homo sapiens, UniProt P33261); test: CYP450 inhibition, cocktail of selective substrates, 2C19; assay type: in vitro ADME; conditions: CYP 2C19, Omeprazole to 5-hydroxyomeprazole; read-out: IC50 of compound (I)
# Chain of CYP 2C19 (P33261 whole entry): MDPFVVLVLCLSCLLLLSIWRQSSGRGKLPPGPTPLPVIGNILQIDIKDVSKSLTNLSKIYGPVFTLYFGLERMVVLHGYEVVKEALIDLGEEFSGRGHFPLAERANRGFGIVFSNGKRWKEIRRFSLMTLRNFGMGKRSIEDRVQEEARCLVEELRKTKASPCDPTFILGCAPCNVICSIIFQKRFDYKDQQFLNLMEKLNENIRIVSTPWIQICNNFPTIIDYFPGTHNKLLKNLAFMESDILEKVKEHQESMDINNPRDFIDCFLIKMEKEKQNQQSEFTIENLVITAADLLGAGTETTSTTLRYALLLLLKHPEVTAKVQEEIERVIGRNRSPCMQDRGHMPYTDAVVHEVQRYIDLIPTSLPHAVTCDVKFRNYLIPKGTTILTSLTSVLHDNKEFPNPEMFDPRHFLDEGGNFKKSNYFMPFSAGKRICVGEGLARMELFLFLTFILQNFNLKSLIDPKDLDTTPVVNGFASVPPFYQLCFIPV
# Description: Compound (I) was tested for CYP450 inhibition using a cocktail of selective substrates. […] This might be addressed later in a clinical study.
# [9] = 15 mg/kg s.c. 14 days (Group 4)
# [10] = 25 mg/kg s.c. 14 days (Group 5)
smiles,measurement,setting,value
"O=c1ccc2ccc(O[C@@H]3C[C@H]4CC[C@@H](C3)N4)cc2o1 [Compound (I), exo-7-(8-aza-bicyclo[3.2.1]oct-3-yloxy)-chromen-2-one]",Activity,[1],increase in activity (sedation and stereotypic behaviour)
same,Body weight,[1],no significant changes in bodyweight
same,AUC(0-t),[2]; Brain,3190 ng·h/mL
same,AUC(0-t),[2]; Liver,493 ng·h/mL
same,AUC(0-t),[2]; Lung,17600 ng·h/mL
same,AUC(0-t),[2]; Plasma,805 ng·h/mL
same,half-life,[2]; Brain,3.6 h
same,half-life,[2]; Lung,2.6 h
same,half-life,[2]; Plasma,0.8 h
same,Ki,5-HT transporter,0.24 nM
same,Ki,DAT,155 nM
same,inhibition at 10 µM,"DAT; DAT, Human, 10 μM",97%
same,Ki,NA transporter [3],1300 nM
same,NA RO %,"NA transporter [4]; estimated at MED in mFST (NMRI mice), DOSE 1 mg/kg",<1.9%
same,NA RO %,"NA transporter [4]; estimated at MED in mMotility, DOSE 10 mg/kg",<17%
same,ED50,"NA transporter [4]; mouse, po",> 50 mg/kg
same,Induction of erection,anesthetized rats; 1 mg/kg,induce erection in both young and adult rats
same,Number of spontaneous erections versus dose,"anesthetized rats; intravenously 0.001, 0.01, 0.1 and 1.0 mg/kg","increased with increasing dosage from 0.001 to 0.1 mg/kg, but decreased abruptly at a dose of 1.0 mg/kg"
same,Stability at 1 μM,[5],40%
same,Stability at 5 μM,[5],61%
same,Ki,NA transporter [6],270 nM
same,Activity,[7]; [9],increased activity in both males and females
same,Body weight gain,[7]; [9],"No changes in body weight gain were observed in the female rats, but a tendency to increased bodyweight in the group 4 males"
same,Relative liver weights,[7]; [9],reduced in group 4 females and increased in group 4 males
same,Activity,[7]; [10],increased activity in both male and female
same,Body weight,[7]; [10],minimal decreased body weight
same,Liver weight,[7]; [10],No changes in liver weight
same,Macroscopic findings at termination,[7]; s.c. 14 days,no treatment-related macroscopic findings
same,AUC(0-inf),[8]; 30 mg/kg p.o.,14300 ng·h/mL
same,bioavailability,[8]; 30 mg/kg p.o.,206%
same,half-life,[8]; 30 mg/kg p.o.,5.1 h
same,AUC(0-inf),[8]; 60 mg/kg p.o.,34700 ng·h/mL
same,bioavailability,[8]; 60 mg/kg p.o.,250%
same,half-life,[8]; 60 mg/kg p.o.,6.1 h
same,Linearity of kinetics (AUC versus dose),"[8]; mice, relatively high doses p.o., single dose",tendency to sub-linear kinetics
same,Cmax,[8]; 30 mg/kg p.o.,3080 ng/mL
same,Tmax,[8]; 30 mg/kg p.o.,0.5 h
same,Cmax,[8]; 60 mg/kg p.o.,4150 ng/mL
same,Tmax,[8]; 60 mg/kg p.o.,0.5 h
same,IC50,CYP 2C19,> 100000 nM
